{"source": "patent US9458437B2", "about": "“Neuroprotective peptides that inhibit interaction between palmitoyl acyl transferase zinc-finger DHHC type containing 17 (zD17) and c-jun N-terminal kinase (JNK)” (The University of British Columbia, priority 2011, dated 2016)", "key": {"[1]": {"biological_target": "zD17-JNK3 interaction (Rattus norvegicus, UniProt P49187)", "sequence (P49187 whole entry)": "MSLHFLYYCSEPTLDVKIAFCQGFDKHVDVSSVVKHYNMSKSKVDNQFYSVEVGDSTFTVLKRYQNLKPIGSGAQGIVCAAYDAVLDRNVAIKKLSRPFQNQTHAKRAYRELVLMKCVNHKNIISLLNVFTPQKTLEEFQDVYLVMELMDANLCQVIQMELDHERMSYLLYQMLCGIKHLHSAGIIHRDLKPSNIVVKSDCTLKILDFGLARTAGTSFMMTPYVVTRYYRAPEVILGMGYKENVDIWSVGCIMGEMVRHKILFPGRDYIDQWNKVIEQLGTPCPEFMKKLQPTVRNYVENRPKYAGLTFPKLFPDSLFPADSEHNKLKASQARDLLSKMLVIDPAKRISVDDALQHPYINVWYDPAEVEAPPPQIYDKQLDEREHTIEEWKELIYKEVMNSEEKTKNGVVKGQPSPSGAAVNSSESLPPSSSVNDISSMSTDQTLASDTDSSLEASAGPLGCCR", "test": "co-immunoprecipitation of zD17 with JNK3 in cortical neuronal cultures", "type": "cell-based", "design": "diminished the co-immunoprecipitation of zD17 with JNK3; endogenous in cells; host or cells: primary cortical neurons of embryonic (E18-19) Wistar rat", "conditions": "for zD17-JNK3 interaction (co-immunoprecipitation), baseline: no NMDA", "experimental": "(§1) All animal experiments were approved by the Animal Care Committee of the University of British Columbia. Primary cortical cultures were prepared from Wistar rat (UBC Animal Care Centre, Vancouver, BC, Canada) brains at embryonic days 18-19. Cultures were maintained in Neurobasal medium supplemented with B27 and 0.5 mM glutamax (Invitrogen™) as described previously (Yang et al., 2009).\n(§2) The protocols for protein extraction have been described previously (Yang et al., 2009). For co-immunoprecipitation, cultured cells were washed with ice-cold PBS followed by incubation with 0.5 ml Gentle Lysis Buffer (GLB) containing 25 mM Tris-HCl (pH 7.4), 2 mM EDTA, 1 mM EGTA, 10 mM NaCl, 0.5% Triton X-100 and 10% Glycerol supplemented with the Complete Protease Inhibitor Tablets (Roche Applied Science™, Indianapolis, Ind., USA) and 1 mM PMSF. Total protein concentration was determined with the BioRad™ Protein Assay kit. Lysates were first precleaned by incubating with Protein A-Sepharose beads (Roche Applied Science™) for 1 h at 4° C., followed by incubation with indicated antibodies (>16 h at 4° C.) and protein A Sepharose bead (2 h at 4° C.). Lysates of rat brain tissues were precleaned with IgG and protein A-beads. Immunoprecipitates were washed three times with GLB buffer; boiled in 2× loading buffer with 1 mM dithiothreitol (DTT) for 3 min; and analyzed with SDS-PAGE as described previously (Yang et al., 2009). The relative intensities of the bands on immunoblots were analyzed and quantified using Image J™ (NIH)."}, "[2]": {"biological_target": "T1, zD17-JNK2 interaction (Rattus norvegicus, UniProt P49186)", "T1 construct": "endogenous in cells; host or cells: primary cortical neurons of embryonic Wistar rat", "T1 sequence (P49186 whole entry)": "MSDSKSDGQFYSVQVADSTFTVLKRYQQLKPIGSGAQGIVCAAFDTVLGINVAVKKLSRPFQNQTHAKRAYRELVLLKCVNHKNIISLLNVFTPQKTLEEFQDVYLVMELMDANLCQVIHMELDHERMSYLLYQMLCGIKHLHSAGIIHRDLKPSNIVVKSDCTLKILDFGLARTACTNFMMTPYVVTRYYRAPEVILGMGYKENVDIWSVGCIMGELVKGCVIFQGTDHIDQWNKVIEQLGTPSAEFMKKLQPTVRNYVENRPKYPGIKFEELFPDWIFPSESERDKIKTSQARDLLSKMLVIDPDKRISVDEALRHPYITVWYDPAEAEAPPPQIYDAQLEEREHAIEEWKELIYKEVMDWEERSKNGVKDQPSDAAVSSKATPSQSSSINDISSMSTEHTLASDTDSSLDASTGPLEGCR", "test": "co-immunoprecipitation of zD17 with JNK2 in neuronal cultures", "type": "cell-based", "experimental": "as §1, §2"}, "[3]": {"biological_target": "T2, zD17-JNK1 interaction (Rattus norvegicus, UniProt P49185)", "T2 construct": "endogenous in cells; host or cells: primary cortical neurons of embryonic Wistar rat", "T2 sequence (P49185 whole entry)": "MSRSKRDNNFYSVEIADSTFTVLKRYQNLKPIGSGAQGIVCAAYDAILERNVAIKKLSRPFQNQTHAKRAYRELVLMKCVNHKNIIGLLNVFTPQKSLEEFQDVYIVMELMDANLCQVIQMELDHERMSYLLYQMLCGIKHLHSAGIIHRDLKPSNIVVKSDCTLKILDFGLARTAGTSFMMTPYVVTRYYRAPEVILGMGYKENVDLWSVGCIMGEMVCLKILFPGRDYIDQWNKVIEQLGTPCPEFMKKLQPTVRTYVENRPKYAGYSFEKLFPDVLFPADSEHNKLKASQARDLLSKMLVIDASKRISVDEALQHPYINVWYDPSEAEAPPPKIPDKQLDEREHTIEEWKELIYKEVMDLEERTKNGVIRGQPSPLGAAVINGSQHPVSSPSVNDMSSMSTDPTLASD", "test": "co-immunoprecipitation of zD17 with JNK1 in neuronal cultures", "type": "cell-based", "experimental": "as §1\nas §2, with “Lysates were first precleaned by incubating with Protein A-Sepharose beads (Roche Applied Science™) for 1 h at 4° C., followed by incubation with indicated antibodies (>16 h at 4° C.) and protein A Sepharose bead (2 h at 4° C.). Lysates of rat brain tissues were precleaned with IgG and protein A-beads.” left out"}, "[4]": {"system": "cultured neurons", "test": "axonal development in cultured neurons (Tau-1 labelling)", "type": "cell-based, rat", "experimental": "(§3) For biochemical studies, neurons were seeded in six-well culture plates with a density of 7.5×10^5 cells per well. For LDH assay and cell death detection, 24-well culture plates were used with a neuron density of 2.5×10^5 cells per well. Neurons of 14-17 days in vitro (DIV) were used for experiments. […] HEK 293 cells were maintained in DMEM (Invitrogen™) supplemented with 10% fetal bovine serum and 1% penicillin/streptomycin. For protein expression in cell lines, cells were transfected with Calcium Phosphate Transfection reagent (Promega™, San Luis Obispo, Calif., USA) and used 24 h later as described previously (Yang et al., 2009). The JNK inhibitor, L-JNKI, was purchased from Alexis Biochemicals™ (San Diego, Calif.). Thrombin was obtained from BIOPUR™ (Bubendorf, Switzerland). Other assay reagents without indication were obtained from Sigma™.\nCultured hippocampal neurons on glass coverslips were used for immunostaining. After treatments indicated in the text, neurons were fixed with 2% paraformaldehyde for 3 min at room temperature followed by permeabilization with ice-cold methanol for 10 min at −20° C. The coverslips were then washed three times with PBS and immunostained with appropriate antibodies dissolved in PBS for 1 h at room temperature. After washing three times with PBS, coverslips were incubated with Alexa-labeled secondary antibodies from Invitrogen for an additional 1 h. For mitochondrial detection, neuronal cultures were incubated at 37° C. for 30 min with 2 μM MitoTracker-TR (Invitrogen™). Coverslips were then fixed and mounted with ProLong Gold Antifade Reagent (Invitrogen™). Fluorescence was captured using a Zeiss Observer Z1™ microscope and all images were analyzed with ImageJ™ and processed using Adobe Photoshop™."}, "[5]": {"biological_target": "T3, JNK3 (Rattus norvegicus, UniProt P49187)", "T3 construct": "cell lysates were prepared and JNK was immunoprecipitated with specific antibodies; endogenous in cells; host or cells: rat primary neuronal cultures; JNK3 immunoprecipitated from lysate", "T3 sequence (P49187 whole entry)": "as the sequence (P49187 whole entry) above", "test": "kinase assay (KA) on JNK3 immunoprecipitated from cell lysates", "type": "cell-based", "experimental": "JNK activity was measured with an in vitro kinase assay as described elsewhere (see, for e.g.: Khatlani et al., 2007). Briefly, cell lysates were prepared and JNK was immunoprecipitated with specific antibodies. The immnoprecipitates were then resuspended in 1× kinase buffer (Cell Signaling Technology™) supplemented with 200 μM ATP and 250 μg/ml GST-c-jun (1-89), and incubated at 30° C. for 30 min. Reactions were terminated by the addition of SDS-PAGE sample buffer. Phosphorylated c-jun was resolved by SDS-PAGE and detected with anti-p-c-jun."}, "[6]": {"system": "neuronal cultures", "test": "LDH assay and PI staining, NMDA excitotoxicity-induced neuronal cell death", "type": "cell-based, rat", "conditions": "pretreatment, NMDA challenge 1 h, 24 h survival", "experimental": "as §3\nNeuronal cultures were challenged with indicated concentrations of NMDA for 1 h, followed by 24 h survival. The release of lactate dehydrogenase (LDH) was measured with an in vitro toxicology assay kit (Sigma™) according to the manufacturer's instructions. Spectrophotometric measurement was performed on a Multilabel Plate Reader (Envision™ 2103, Perkin Elmer™). The LDH reading represents the primary absorbance at a wavelength of 490 nm after subtraction of background absorbance at 690 nm. LDH readings were then converted to a percentage of neuronal death by dividing by the readings from cultures incubated with 1% triton for 15 min representing total LDH. Following the LDH assay, propidium iodide (PI) (Sigma™) was added to the medium at a final concentration of 1 μg/ml and neurons were stained for 30 min at 30° C. After fixation with 4% paraformaldehyde, neurons were washed with 1×PBS and stained with Hoechst™ 33342 (Sigma™). The fluorescence of PI and Hoechst™ were examined with laser microscopy and analyzed with ImageJ™."}}, "data": [{"compound": "CCCCCCCCCCCCCCC(Br)C(=O)O", "note": "(stereo not drawn) [2-BrPA, 2-bromopalmitate]", "values": [{"measurement": "zD17-JNK3 interaction (co-immunoprecipitation), baseline", "setting": "[1]", "result": "robustly enhanced"}]}, {"compound": "N[C@@H](CCC(=O)O)C(=O)O", "note": "[Glutamate, glutamate]", "values": [{"measurement": "zD17 interaction with JNK3, fold increase compared with control", "setting": "[1]", "result": "2.6±0.2", "unit": "fold"}, {"measurement": "zD17 interaction with JNK2, fold increase compared with control", "setting": "[2]", "result": "1.7±0.2", "unit": "fold"}, {"measurement": "zD17 interaction with JNK1, fold increase compared with control", "setting": "[3]", "result": "1.4±0.1", "unit": "fold"}]}, {"compound": "CN[C@H](CC(=O)O)C(=O)O", "note": "[NMDA, N-methyl-D-aspartic acid]", "values": [{"measurement": "zD17 interaction with JNK3, fold increase compared with control", "setting": "[1]", "result": "2.5±0.3", "unit": "fold"}, {"measurement": "zD17 interaction with JNK2, fold increase compared with control", "setting": "[2]", "result": "2.1±0.4", "unit": "fold"}, {"measurement": "zD17 interaction with JNK1, fold increase compared with control", "setting": "[3]", "result": "1.4±0.1", "unit": "fold"}]}, {"compound": "Oc1c2ccccc2c2c3c(cccc13)N=N2", "note": "[SP600125, reference compound]", "values": [{"measurement": "axon length", "setting": "[4]; SP600125 incubation, control 161.2±3.9", "result": "84.9±1.6", "unit": "%"}, {"measurement": "axon initiation rate normalized to control", "setting": "[4]; incubation of cultured neurons, Tau-1 marker", "result": "18.2±4.1", "unit": "%"}]}, {"compound": "IL-1β: cytokine used to induce inflammation stress", "values": [{"measurement": "fold increase of zD17-JNK3 interaction", "setting": "[1]; 10 ng/ml, 16 h", "result": "1.88±0.23", "unit": "fold"}]}, {"compound": "MTPLMWAAYGTGSVGPTRLL (NIMoEmut NIMoE sequence with point mutations on three charged amino acids at positions 10, 12, and 15) [reference compound]", "values": [{"measurement": "enhancement of the zD17-JNK3 interaction induced by NMDA/excitotoxicity", "setting": "[1]", "result": "did not selectively block enhancement"}, {"measurement": "enhancement of JNK3 activity induced by NMDA", "setting": "[5]; neuronal cultures", "result": "did not selectively block enhancement"}, {"measurement": "excitotoxicity-induced cell death as measured by LDH release and PI staining", "setting": "[6]", "result": "no protective effects"}]}, {"compound": "NVKGESALDLAKQ (listed as Homo sapiens) [DIPep1, control peptide derived from an unrelated region of zD17 (255-267), reference compound]", "values": [{"measurement": "excitotoxicity-induced cell death as measured by LDH release and PI staining", "setting": "[6]", "result": "no protective effects"}]}, {"compound": "TNF-α", "values": [{"measurement": "fold increase of zD17-JNK3 interaction", "setting": "[1]; 50 ng/ml, 6 h", "result": "1.53±0.11", "unit": "fold"}]}, {"compound": "TPLHWATRGGHLSMV (listed as Homo sapiens) [NIMoD, peptide comprising motif-D of zD17, fused to HIV-1 Tat transduction domain]", "values": [{"measurement": "zD17-JNK3 interaction (co-immunoprecipitation), baseline", "setting": "[1]", "result": "significantly diminished"}, {"measurement": "JNK3 basal activity", "setting": "[5]; neuronal cultures", "result": "reduction of JNK3 basal activity"}, {"measurement": "JNK3 basal activity, fold change to control", "setting": "[5]; pretreatment of cells 1 μM for 2 h", "result": "0.72±0.07", "unit": "fold"}]}]}
